In BindingDB's records for doi:10.1016/s0960-894x(02)00954-x (A.P.S. University, 2003) one finds Ki data, which are given here for one molecule.

The Ki is the dissociation constant of the complex between target and ligand, obtained from inhibition or displacement. The low end stands for a stronger hold on the target, the high end for a looser hold on the target.

The target in this experiment is Carbonic anhydrase 2 (Homo sapiens, UniProt P00918). The experiment can be described thus: Inhibition of human carbonic anhydrase II (CAII).

As to `NS(=O)(=O)c1cccc(N2C(=O)c3cccnc3C2=O)c1`, the Ki is 400 nM.
